These results are taken from patent US5126367A, “Psychotropic benzodioxan derivatives” (American Home Products Corporation, priority 1991, dated 1992).

One test deals with T1, dopamine D-2 receptor (Rattus norvegicus, UniProt P61169).
T1 construct: from tissue; host or cells: homogenized limbic brain tissue
The experiment in a line: D-2 Binding: displacement of 3H-spiroperidol in homogenized limbic brain tissue. As for the experimental part:
High affinity for the dopamine D2 receptor was established by the standard experimental test procedure of Fields, et al., Brain Res., 136, 578 (1977) and Yamamura et al., eds., Neurotransmitter Receptor Binding, Raven Press, New York (1978) wherein homogenized limbic brain tissue is incubated with ^3 H-spiroperidol and various concentrations of test compound, filtered and washed and shaken with Hydrofluor scintillation cocktail (National Diagnostics) and counted in a Packard 460 CD scintillation counter.

The target in test [1] is T2, serotonin 5-HT1A receptor (Rattus norvegicus, UniProt P19327).
T2 construct: following the procedure of Hall et al., J. Neurochem; 44, 1685 (1985); from tissue; host or cells: brain tissue (from the cited method)
T2 sequence (P19327 1-422): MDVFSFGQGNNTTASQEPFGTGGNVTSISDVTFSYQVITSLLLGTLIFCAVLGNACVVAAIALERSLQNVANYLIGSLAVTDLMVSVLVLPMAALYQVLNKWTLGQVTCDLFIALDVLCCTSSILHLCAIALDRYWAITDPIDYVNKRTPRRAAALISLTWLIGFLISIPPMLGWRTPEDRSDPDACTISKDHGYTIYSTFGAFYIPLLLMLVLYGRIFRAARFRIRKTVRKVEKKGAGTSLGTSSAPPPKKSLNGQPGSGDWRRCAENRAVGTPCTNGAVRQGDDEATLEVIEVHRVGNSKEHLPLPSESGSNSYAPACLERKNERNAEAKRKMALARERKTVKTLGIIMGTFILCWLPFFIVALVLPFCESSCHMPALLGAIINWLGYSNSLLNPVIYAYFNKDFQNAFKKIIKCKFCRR
The experiment in a line: 5-HT1A Binding: displacement of [3H] 8-OHDPAT. From the text:
High affinity for the serotonin 5-HT1A receptor was established by testing the claimed compound's ability to displace [^3 H] 8-OHDPAT (dipropylaminotetralin) from the 5-HT1A serotonin receptor following the procedure of Hall et al., J. Neurochem. 44, 1685 (1985). […] The anxiolytic activity of buspirone is believed to be, at least partially, due to its 5-HT1A receptor affinity (Vander Maclen et al., Eur. J. Pharmacol. 1986, 129 (1-2) 133-130).

The next test has as its system 5-HT1A receptor. The conditions noted are these: cited from earlier work.
The test system of test [2] is serotonin syndrome (5-HT1A). The test can be described thus: Production of the serotonin syndrome (agonist activity). The class given is in vivo, male Sprague-Dawley CD rats. The conditions noted are these: for ED50: Rattus norvegicus, 0.25 h, first 15 minutes after compound administration, read-out: ED50 for producing the serotonin syndrome. As for the experimental part:
(§1) Certain of the compounds of this invention were also compared to buspirone in their ability to either produce or antagonize the serotonin syndrome according to the procedure of Smith and Peroutka, Pharmacol. Biochem. Behav. 24: 1513-1519, 1986, in which 250-350 g male Sprague-Dawley CD rats (Charles River) are given either test compound or vehicle and placed individually into plexiglass observation cages. Agonist activity of the compound is determined by scoring for the presence of the serotonin syndrome (forepaw treading, head weaving, tremor, hindlimb abduction, flattened body posture, and Straub tail) during the first 15 minutes after compound administration. Antagonist activity is then determined by a challenge with either of the 5-HT1A agonists 5-methoxy-N,N-dimethyltryptamine (5-MeODMT) or 8-hydroxydipropylaminotetralin.

Test [3] has as its system serotonin syndrome (5-HT1A). The experiment in a line: Antagonism of 5-HT1A agonist-induced (5-MeODMT or 8-OH-DPAT) serotonin syndrome. The class given is in vivo, male Sprague-Dawley CD rats. Particulars: for ED50: Rattus norvegicus, rats. As for the experimental part:
as §1

Test [4] concerns the target T2, serotonin 5-HT1A receptor. Particulars: buspirone, standard for anxiolytic activity; cited from earlier work.

The structures appear in SMILES notation.

T1 sequence (P61169 whole entry): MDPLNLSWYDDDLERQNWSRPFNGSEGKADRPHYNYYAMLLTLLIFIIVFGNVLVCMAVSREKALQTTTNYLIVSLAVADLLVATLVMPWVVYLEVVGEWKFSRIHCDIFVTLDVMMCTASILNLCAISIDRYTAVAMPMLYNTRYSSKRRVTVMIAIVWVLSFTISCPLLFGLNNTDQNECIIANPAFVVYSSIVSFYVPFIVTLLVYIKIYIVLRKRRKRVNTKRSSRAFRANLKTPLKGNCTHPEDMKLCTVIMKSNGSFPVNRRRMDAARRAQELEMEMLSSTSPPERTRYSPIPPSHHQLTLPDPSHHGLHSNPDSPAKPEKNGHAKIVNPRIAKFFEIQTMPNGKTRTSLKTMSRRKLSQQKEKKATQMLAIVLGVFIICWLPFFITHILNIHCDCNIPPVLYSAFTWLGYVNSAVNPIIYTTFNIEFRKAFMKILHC

`O=C(NCCNCC1COc2ccccc2O1)C12CC3CC(CC1C3)C2` (stereo not drawn) [Example 7, N-[2-[[(2,3-Dihydro-1,4-benzodioxin-2-yl)methyl]amino]ethyl]hexahydro-2,5-methanopentalene-3a(1H)-carboxamide] gave an inhibition at 1 µM on dopamine D-2 receptor of 81%. Testing at 0.1 µM in test [1] gave an inhibition of 98%.
Regarding `O=C1CC2(CCCC2)CC(=O)N1CCCCNCC1COc2ccccc2O1` (stereo not drawn) [MDL 72832, 8-[4-(1,4-benzodioxan-2-ylmethylamino)butyl]-8-azaspiro[4.5]decane-7,9-dione], the “5-HT1A ligand character (in words)” value in the test with 5-HT1A receptor was “selective and stereospecific”.
`O=C(NCCNCC1COc2ccccc2O1)NC12CC3CC(CC1C3)C2` (stereo not drawn) [Example 4, N-[2-[(2,3-Dihydro-1,4-benzodioxin-2-yl)methyl]aminoethyl-N'-hexahydro-2,5-methanopentalen-3a(1H)-yl]urea] gave an inhibition at 1 µM at dopamine D-2 receptor of 55%. In test [1], this compound had an inhibition at 0.1 µM of 95%.
The corresponding values for `O=C(OCCNCC1COc2ccccc2O1)C12CC3CC(CC(C3)C1)C2` (stereo not drawn) [Example 2, Tricyclo[3,3,1,1(3,7)]decane-1-carboxylic acid 2-[[(2,3-dihydro-1,4-benzodioxin-2-yl)methyl]amino]ethyl ester] are 91% and 100%.
As to `O=C(NCCNCC1COc2ccccc2O1)C12CC3CC(CC(C3)C1)C2` (stereo not drawn) [Example 1, N-[2-[[(2,3-Dihydro-1,4-benzodioxin-2-yl)methyl]amino]ethyl]tricyclo[3,3,1,1(3,7)]-decane-1-carboxamide], at dopamine D-2 receptor, the inhibition at 1 µM stood at 83%. This compound also displayed an inhibition at 0.1 µM in test [1] of 100%.
In the case of `CC1(C)C2CCC1(C(=O)NCCNCC1COc3ccccc3O1)C(=O)C2` (single isomer, unassigned; (-)) [Example 6], at dopamine D-2 receptor, at 1 µM the inhibition was 34%. The compound further yielded an inhibition at 0.1 µM in test [1] of 88%. For the same compound, in test [2] (single dose of 20 mg/kg), the “characterization as agonist/antagonist in the serotonin syndrome test” value is reported as “partial agonist”.
Turning to `O=C1CC2(CCCC2)CC(=O)N1CCCCN1CCN(c2ncccn2)CC1` [buspirone, reference compound], the median effective dose (ED50) in test [2] (rats) is 7.3 mg/kg; in test [3] (challenge with 5-MeODMT, read-out: ED50 for antagonizing 5-MeODMT-induced syndrome) it was 4.6 mg/kg. The “characterization as agonist/antagonist in the serotonin syndrome test” value in test [2] (buspirone: from ED50s for production and antagonism) is reported as “partial agonist”. In addition, the “affinity for the 5-HT1A serotonin receptor subtype (in words)” value in test [4] is “potent affinity”.
For the compound `O=C1CC2(CCCC2)CC(=O)N1CCCCNCC1COc2ccccc2O1` (single isomer, unassigned; (-)) [(-)-MDL 72832], the “binding relative to the dextrorotary isomer at the 5-HT1A receptor site” value in the test on 5-HT1A receptor ((-)-isomer vs dextrorotary isomer) is reported as 32 times.
Turning to `O=C(NCCNCC1COc2ccccc2O1)NC12CC3CC(CC(C3)C1)C2` (stereo not drawn) [Example 3, N-[2-[(2,3-Dihydro-1,4-benzodioxin-2-yl)methylamino]ethyl]-N'-tricyclo[3,3,1,1(3,7)]dec-1-ylurea], the inhibition at 1 µM at dopamine D-2 receptor was 27%. In test [1], this compound came in with an inhibition at 0.1 µM of 98%. In test [1] (5-HT1A binding), this compound displayed a half-maximal inhibitory concentration (IC50) of 5 nM. For the same compound, the “production of the serotonin syndrome on its own” value in test [2] (compound alone, rats) is “did not produce the syndrome on its own”. Moreover, the “ability to antagonize the serotonin syndrome” value in test [3] (1.0, 3.3, 10.0, and 33.0 mg/kg) is reported as “mimicked buspirone's ability to antagonize the serotonin syndrome”.
Regarding `CC1(C)[C@H]2CC[C@]1(CS(=O)(=O)NCCNCC1COc3ccccc3O1)C(=O)C2` (single isomer, unassigned) [Example 8], the inhibition at 1 µM at dopamine D-2 receptor worked out at 49%. Besides, testing at 0.1 µM in test [1] gave an inhibition of 90%. Besides, the half-maximal inhibitory concentration (IC50) in test [1] (5-HT1A binding) amounted to 9 nM.
`CC1(C)C2CCC1(C(=O)NCCNCC1COc3ccccc3O1)C(=O)C2` (single isomer, unassigned; (+)) [Example 5, (+)-N-[2-[[(2,3-Dihydro-1,4-benzodioxin-2-yl)methyl]amino]ethyl]-7,7-dimethyl-2-oxobicyclo[2,2,1]heptane-1-carboxamide] registered an inhibition at 1 µM on dopamine D-2 receptor of 34%. The compound further came in with an inhibition at 0.1 µM in test [1] of 97%. For the same compound, the EC50 in test [1] (5-HT1A binding, given as EC50) amounted to 3 nM. In addition, the 50% effective dose (ED50) in test [2] (rats) is 3.8 mg/kg; in test [3] (challenge with 8-OH-DPAT, read-out: ED50 for antagonizing 8-OH-DPAT induced syndrome) it was 4.7 mg/kg.
